# Data: publication PMC8011376 (Journal of the American Chemical Society, 2020)
# How the values were obtained:
# Test in all cases: MIC determination, broth microdilution
# E. coli DH5α = type: cell-based, Escherichia coli; conditions: listed as measured MICs for polymyxin-supplemented assays
# K. pneumoniae = type: cell-based, Klebsiella pneumoniae; conditions: listed as measured MICs for polymyxin-supplemented assays
# P. aeruginosa = type: cell-based, Pseudomonas aeruginosa; conditions: listed as measured MICs for polymyxin-supplemented assays
# A. baumannii = type: cell-based, Acinetobacter baumannii; conditions: listed as measured MICs for polymyxin-supplemented assays
# E. cloacae ATCC 13047 = type: cell-based, Enterobacter cloacae
substance,measurement,setting,value
polymyxin,MIC of polymyxin,E. coli DH5α,0.0625 µg/mL
same,MIC of polymyxin,K. pneumoniae,0.15 µg/mL
same,MIC of polymyxin,P. aeruginosa,0.15 µg/mL
same,MIC of polymyxin,A. baumannii,0.3 µg/mL
same,MIC of polymyxin,"E. cloacae ATCC 13047; E. cloacae ATCC 13047, strain not susceptible (note)",> 64 µg/mL
same,MIC of polymyxin,"E. cloacae ATCC 13047; E. cloacae, value in the list of measured MICs",2 µg/mL
